Results from ChEMBL document CHEMBL1153773, “Structure-activity relationship of seco-tanapartholides isolated from Achillea falcata for inhibition of HaCaT cell growth” (Eur J Med Chem, 2009).
≈ marks a conversion by molar mass, not a printed value. Calls of active or inactive are those of the source. The calls are words filed in the database; no cut-off is given here.

Legend:
HaCaT [1] = experiment: Cytotoxicity against human HaCaT cells assessed as lactate dehydrogenase release at 5 ug/ml after 6 hrs by ELISA; type: functional
HaCaT [2] = experiment: Cytotoxicity against human HaCaT cells assessed as lactate dehydrogenase release at 15 ug/ml after 6 hrs by ELISA; type: functional
HaCaT [3] = experiment: Cytotoxicity against human HaCaT cells assessed as lactate dehydrogenase release at 75 ug/ml after 6 hrs by ELISA; type: functional
HaCaT [4] = experiment: Cytotoxicity against human HaCaT cells assessed as lactate dehydrogenase release at 25 ug/ml after 6 hrs by ELISA; type: functional
HaCaT [5] = experiment: Cytotoxicity against human HaCaT cells assessed as lactate dehydrogenase release at 20 ug/ml after 6 hrs by ELISA; type: functional
HaCaT [6] = experiment: Cytotoxicity against human HaCaT cells assessed as lactate dehydrogenase release at 10 ug/ml after 6 hrs by ELISA; type: functional
HaCaT [7] = experiment: Cytotoxicity against human HaCaT cells after 24 hrs by MTT assay; type: functional, cell-based
HaCaT [8] = experiment: Cytotoxicity against human HaCaT cells assessed as lactate dehydrogenase release at 50 ug/ml after 6 hrs by ELISA; type: functional
HaCaT [9] = experiment: Cytotoxicity against human HaCaT cells assessed as reduction in cell viability at 5 ug/ml after 24 hrs by MTT assay; type: functional
HaCaT [10] = experiment: Cytotoxicity against human HaCaT cells assessed as reduction in cell viability at 10 ug/ml after 24 hrs by MTT assay; type: functional
[11] = Cytotoxicity against human Keratinocyte cells assessed as reduction in cell viability at 10 ug/ml after 24 hrs by MTT assay; type: cell-based
HaCaT [12] = experiment: Cytotoxicity against human HaCaT cells assessed as lactate dehydrogenase release at 100 ug/ml after 6 hrs by ELISA; type: functional
[13] = Cytotoxicity against human keratinocytes at 25 ug/ml; type: cell-based; conditions: keratinocyte
[14] = Cytotoxicity against human Keratinocyte cells assessed as reduction in cell viability at 5 ug/ml after 24 hrs by MTT assay; type: cell-based
HaCaT [15] = experiment: Cell cycle arrest in human HaCaT cells assessed as accumulation at G2/M phase after 24 hrs; type: functional, cell-based

| SMILES | Activity (HaCaT [1]) [%] | Activity (HaCaT [2]) [%] | Activity (HaCaT [3]) [%] | Activity (HaCaT [4]) [%] | Activity (HaCaT [5]) [%] | Activity (HaCaT [6]) [%] | Activity (HaCaT [7]) | IC50 (HaCaT [7]) [µg/mL] | Activity (HaCaT [8]) [%] | Activity (HaCaT [9]) [%] | Activity (HaCaT [10]) [%] | Activity [11] [%] | Activity (HaCaT [12]) [%] | Activity [13] | Activity [14] [%] | Activity (HaCaT [15]) |
| --- | --- | --- | --- | --- | --- | --- | --- | --- | --- | --- | --- | --- | --- | --- | --- | --- |
| C=C1C(=O)O[C@H](C2=C(C)[C@@H](O)CC2=O)[C@@H]1CCC(C)=O | 4 | 0 | 2 | 11 | 11 | 18 | Dose-dependent effect | 13 (≈ 46.7 µM) | 0 | – | – | – | – | – | – | – |
| C=C1C(=O)O[C@H](C2=C(C)[C@@H](OC)CC2=O)[C@@H]1CCC(C)=O | 7 | 7 | 0 | 7 | 5 | 7 | Dose-dependent effect | 7.1 (≈ 24.3 µM) | 0 | 44 | 66 | > 10 | 0 | Toxic | > 10 | Active |
| C=C1C(=O)O[C@H](C2=C(C)C(OC)CC2=O)[C@@H]1[C@@H](O)CC(C)=O (stereo not given in full) | 4 | 4 | 1 | 5 | 4 | 4 | Dose-dependent effect | 16.7 (≈ 54.2 µM) | 2 | – | – | – | 0 | – | – | – |
| C=C1C(=O)O[C@H](C2=C(C)C(O)CC2=O)[C@@H]1CCC(C)=O (mixture of isomers) | 2 | 2 | 0 | 3 | 5 | 3 | Dose-dependent effect | 19.1 | 0 | – | – | – | 0 | – | – | – |
